Measured values published in ChEMBL document CHEMBL2448809, “UCSF DeRisi Lab MMV Box Apicoplast Screening”.

Each compound was assayed on Plasmodium falciparum (assay: MMV: Compounds (1uM) were screened in a 72hr growth assay monitored by flow cytometry both in the presence and absence of supplemental isopentenyl pyrophosphate (IPP) 200uM. Compounds which fail to show anti-malarial activity when chemically rescued by IPP are therefore specific to the apicoplast. The values are expressed as the ratio of the corresponding activity with and without IPP, respectively.).
Assay type: functional, W2
Compound `CCOc1ccc(Nc2c3ccccc3nc3ccccc23)cc1.Cl` has a Ratio of 1.
For `CCCc1cc(O)c2c3c(c(=O)oc2c1)CN(C)CC3`, the Ratio was 0.8028.
With `Cc1cc(NCCN2CCCCC2)c2ccc3ccccc3c2n1` the Ratio was 0.8873.
In the case of `Cc1cc(=O)oc2c1ccc1oc(C(=O)c3ccccc3)c(C)c12`, the Ratio is reported as 1.067.
`Oc1ccc(-c2nc(-c3ccc4oc5ccc(-c6[nH]c(-c7ccc(O)cc7)nc6-c6ccccc6)cc5c4c3)c(-c3ccccc3)[nH]2)cc1` was tested, and the Ratio was 0.8182.
With `CCOC(=O)c1c(C)n(-c2ccccc2)c2ccc(OC(=O)c3cc(OC)c(OC)c(OC)c3)cc12` the Ratio was 0.9.
`CCCCNc1nc(NC(C)(C)C)nc(NC(C)(C)C)n1` gave a Ratio of 1.02.
`CCOc1cc(CNC(C)C(O)c2ccccc2)cc(Cl)c1OCC` (stereo not given) gave a Ratio of 0.8833.
Work on `Cc1cc(Nc2ccc(C)c(Cl)c2)n2nc(C(F)(F)F)nc2n1` yielded a Ratio of 0.6628.
In the case of `COc1ccccc1NC1=C(N2CCCCC2)C(=O)c2ccccc2C1=O`, the Ratio is reported as 0.9344.
Compound `Cl.c1ccc2c(NCCCCCCNc3c4c(nc5ccccc35)CCCC4)c3c(nc2c1)CCCC3` has a Ratio of 1.108.
`Cn1c(C(=O)c2cccc3ccccc23)nc2ccccc21` showed a Ratio of 0.8689.
For `COc1cccc(-c2nn(C)c3sc(C(=O)NCCN4CCN(c5ccccc5F)CC4)cc23)c1`, the Ratio was 0.7703.
In the case of `O=c1c2c([nH]c3ccccc13)CCCC2`, the Ratio is reported as 0.8986.
With `CCCCCn1c(=N)n(CC(O)COc2cccc(C)c2)c2ccccc21.Cl` (stereo not given) the Ratio was 1.128.
`CN1CCN(c2ncnc3c2[nH]c2ccc(Cl)cc23)CC1` showed a Ratio of 0.9492.
With `Cc1ccc(-c2cc3nc4c(c(O)n3n2)CCCC4)cc1` the Ratio was 0.9459.
With `COc1ccccc1N1C(=N)SC(=Cc2ccc(OCc3ccccc3F)cc2)C1=O` the Ratio was 1.033.
`CCOc1ccc(-c2nonc2NC(=O)c2cccc(C)c2)cc1OCC` gave a Ratio of 0.6977.
With `COc1ccc(CCN2C(=O)c3[nH]nc(-c4cc(Cl)c(C)cc4O)c3C2c2ccccc2F)cc1` (stereo not given) the Ratio was 0.7742.
`CCN1CCCC1CNc1[nH]cnc2c3cc(Cl)ccc3nc1-2` (stereo not given) showed a Ratio of 0.925.
With `Cc1sc(NC(=O)c2ccccc2)c(C(c2cccs2)N2CCN(c3ccccc3)CC2)c1C` (stereo not given) the Ratio was 0.9412.
`Cc1cc(C)c2c(c1)OCN(Cc1ccccc1Cl)C2` was tested, and the Ratio was 0.8871.
For `CN(C)c1ccc(C(O)(c2ccc(N(C)C)cc2)c2ccc(N(C)C)cc2)cc1` [METHYLROSANILINE], the Ratio was 1.127.
In the case of `O=C(Nc1ccc(F)c(Cl)c1)Nc1ccc(Cl)c(Cl)c1`, the Ratio is reported as 1.268.
